Source: ChEMBL document CHEMBL5512668, “Macrocyclic Azapeptide Nitriles: Structure-Based Discovery of Potent SARS-CoV-2 Main Protease Inhibitors as Antiviral Drugs” (J Med Chem, 2024)

Tests used:
[1] = molecular target: Procathepsin L (Homo sapiens, UniProt P07711); assay: Inhibition of human cathepsin L using Z-Phe-Arg-pNA as substrate incubated for 60 mins
[2] = molecular target: T1, Replicase polyprotein 1ab (Severe acute respiratory syndrome coronavirus 2, UniProt P0DTD1)
[3] = molecular target: T1, Replicase polyprotein 1ab; remark: listed apart in the source
[4] = molecular target: Cathepsin S (Homo sapiens, UniProt P25774); assay: Inhibition of recombinant human cathepsin S using Z-Phe-Arg-AMC as substrate incubated for 60 mins
[5] = system: SARS-CoV-2; assay: microbe, parasite or virus in culture; settings: Severe acute respiratory syndrome coronavirus 2, JPN/TY/WK-521, VeroE6/TMPRSS2
[6] = system: SARS-CoV-2; assay: microbe, parasite or virus in culture; settings: Severe acute respiratory syndrome coronavirus 2, JPN/TY/WK-521, VeroE6/TMPRSS2; remark: listed apart in the source
[7] = system: SARS-CoV-2; assay: microbe, parasite or virus in culture; settings: Severe acute respiratory syndrome coronavirus 2, WK-521, Vero C1008
[8] = system: SARS-CoV-2; assay: microbe, parasite or virus in culture; settings: Severe acute respiratory syndrome coronavirus 2, JPN/TY/WK-521, VeroE6/TMPRSS2, 24 h, read-out: INH
[9] = Stability of compound in DMEM assessed as time required for 50% compound degradation at 100 uM incubated for 24 hrs by HPLC method
[10] = in vitro; settings: male, human, plasma
[11] = molecular target: Replicase polyprotein 1ab (Severe acute respiratory syndrome coronavirus 2) (UniProt P0DTD1); settings: dose 1.0 µM, time 65.0 min
[12] = system: SARS-CoV-2; assay: microbe, parasite or virus in culture; settings: Severe acute respiratory syndrome coronavirus 2, JPN/TY/WK-521, VeroE6/TMPRSS2, 24 h, read-out: INH; remark: listed apart in the source

Procathepsin L, sequence (P07711 whole entry): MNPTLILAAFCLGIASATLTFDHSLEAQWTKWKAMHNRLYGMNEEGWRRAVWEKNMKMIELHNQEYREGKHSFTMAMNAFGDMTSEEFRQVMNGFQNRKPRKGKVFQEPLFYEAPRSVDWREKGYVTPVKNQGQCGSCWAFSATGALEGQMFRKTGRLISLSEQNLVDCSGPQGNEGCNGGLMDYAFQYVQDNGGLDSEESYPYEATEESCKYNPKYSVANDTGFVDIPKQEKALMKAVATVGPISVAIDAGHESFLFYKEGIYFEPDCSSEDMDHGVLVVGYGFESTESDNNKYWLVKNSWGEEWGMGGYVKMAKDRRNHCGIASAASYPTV
Cathepsin S, sequence (P25774 whole entry): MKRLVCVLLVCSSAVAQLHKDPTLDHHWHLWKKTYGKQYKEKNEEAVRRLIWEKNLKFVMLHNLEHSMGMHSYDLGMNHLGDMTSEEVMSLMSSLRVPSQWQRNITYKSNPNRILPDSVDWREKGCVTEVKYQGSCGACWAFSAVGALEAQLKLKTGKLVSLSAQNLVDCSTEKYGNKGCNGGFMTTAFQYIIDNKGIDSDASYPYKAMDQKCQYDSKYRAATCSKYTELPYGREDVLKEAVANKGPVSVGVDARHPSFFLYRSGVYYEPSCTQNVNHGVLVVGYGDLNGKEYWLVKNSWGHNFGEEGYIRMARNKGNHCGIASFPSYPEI

SMILES	Ki [1] [nM]	IC50 [2] [nM]	inhibition [11] [%]	also measured
CN(C(=O)[C@H](Cc1ccccc1)NC(=O)[C@@H](NC(=O)c1cccs1)C(C)(C)C)N(C#N)Cc1cccc(Cl)c1F	93.5	15		
CN1C(=O)[C@H](Cc2ccccc2)N(C(=O)CNC(=O)c2cccs2)CC2(CC2)COc2c(Cl)cccc2CN1C#N		30		Ki [3]: 21.1 nM
CN(C(=O)[C@H](Cc1ccccc1)NC(=O)[C@@H](NC(=O)c1cccs1)C1CCCCC1)N(C#N)Cc1ccc(Cl)cc1	25.1	18		Ki [3]: 13 nM
CN1C(=O)[C@H](Cc2ccccc2)NC(=O)COCCOCCOc2ccc(F)cc2CN1C#N		2610		Ki [4]: 765 nM
CN(C(=O)[C@H](Cc1cccc(Cl)c1)NC(=O)[C@@H](NC(=O)c1cccs1)C(C)(C)C)N(C#N)Cc1cccc(Cl)c1F	163	9		
CC(C)(C)[C@H](NC(=O)C(F)(F)F)C(=O)N1C[C@H]2[C@@H]([C@H]1C(=O)N[C@H](C#N)C[C@@H]1CCNC1=O)C2(C)C				IC50 [5]: 160 nM; EC50 [6]: 860 nM; IC50 [7]: 940 nM; inhibition at 3.33 µM [8]: 93%
CN(C(=O)[C@H](Cc1ccccc1Cl)NC(=O)[C@@H](NC(=O)c1cccs1)C(C)(C)C)N(C#N)Cc1cccc(Cl)c1F	56.1	26		
CN1C(=O)[C@H](Cc2ccccc2)N(C(=O)[C@@H](NC(=O)c2cccs2)C(C)(C)C)CCCOc2ccc(Cl)c(F)c2CN1C#N				Ki [4]: 3020 nM
CN1C(=O)[C@H](Cc2ccccc2)N(C(=O)CNC(=O)c2cccs2)CCCOc2c(Cl)cccc2CN1C#N		3		half-life at 24 h, 100 µM [9]: 7.65 h; EC50 [6]: 2550 nM; Ki [4]: 470 nM; Ki [3]: 2.29 nM; inhibition at 3.33 µM [8]: 63%; half-life at 100 µM [10]: 3 h
CN1C(=O)[C@H](CCc2ccccc2)NC(=O)COCCOCCOc2ccc(F)cc2CN1C#N				Ki [4]: 662 nM
CCN(CC)CCOC(=O)c1ccc(N)cc1.Cl [PROCAINE HYDROCHLORIDE]				half-life at 100 µM [10]: 0.103 h
CN(C(=O)[C@@H]1Cc2ccccc2CN1C(=O)OCc1ccccc1)N(C#N)Cc1ccc(Cl)cc1			26	
CN1C(=O)[C@H](Cc2ccccc2)N(C(=O)COc2ccc(Cl)cc2Cl)CCCOc2c(Cl)cccc2CN1C#N		38		half-life at 24 h, 100 µM [9]: 1.76 h; inhibition at […] [12]: 58%; EC50 [6]: 2140 nM; Ki [3]: 26.8 nM; half-life at 100 µM [10]: 1.92 h
CN(C(=O)[C@H](Cc1cccc(F)c1)NC(=O)[C@@H](NC(=O)c1cccs1)C(C)(C)C)N(C#N)Cc1cccc(Cl)c1F	178	4		
CN1C(=O)[C@H](CCc2ccccc2)NC(=O)COCCOc2ccc(F)cc2CN1C#N		1470		Ki [4]: 179 nM
CN1C(=O)[C@H](Cc2ccccc2)N(C(=O)COc2ccc(Cl)cc2Cl)CCCOc2ccc(Cl)c(F)c2CN1C#N		57		Ki [4]: 1820 nM
CN(C(=O)[C@H](Cc1ccccc1)NC(=O)[C@@H](NC(=O)C1CCCC1)C(C)(C)C)N(C#N)Cc1ccc(Cl)cc1	344	32		Ki [3]: 23 nM
CN(C(=O)[C@H](Cc1ccccc1)NC(=O)C1(Oc2ccc(Cl)cc2Cl)CCC1)N(C#N)Cc1ccc(Cl)cc1			8	
COc1cccc(NC2(C(=O)N[C@@H](Cc3ccccc3)C(=O)N(C)N(C#N)Cc3ccc(Cl)cc3)CCCC2)c1			12	
CN(C(=O)[C@H](Cc1ccccc1F)NC(=O)[C@@H](NC(=O)c1cccs1)C(C)(C)C)N(C#N)Cc1cccc(Cl)c1F	49.6	19		
CN(C(=O)[C@@H](NC(=O)[C@@H](NC(=O)c1cccs1)C(C)(C)C)C1CCCCC1)N(C#N)Cc1cccc(Cl)c1F			21	
CN(C(=O)[C@H](Cc1ccc(Cl)cc1)NC(=O)[C@@H](NC(=O)c1cccs1)C(C)(C)C)N(C#N)Cc1cccc(Cl)c1F			6	
CN(C(=O)[C@H](Cc1cccs1)NC(=O)[C@@H](NC(=O)c1cccs1)C(C)(C)C)N(C#N)Cc1cccc(Cl)c1F	130	9		Ki [3]: 6.45 nM
CN(C(=O)[C@H](Cc1ccccc1)NC(=O)[C@@H]1Cc2ccccc2CN1C(=O)c1cccs1)N(C#N)Cc1ccc(Cl)cc1			21	
CN(C(=O)[C@H](Cc1ccccc1)NC(=O)C(C)(C)Oc1ccc(Cl)cc1Cl)N(C#N)Cc1ccc(Cl)cc1			17	
CN(C(=O)[C@H](Cc1ccccc1)NC(=O)[C@@H](NC(=O)c1cccs1)C(C)(C)C)N(C#N)Cc1ccc(Cl)cc1	179	19		Ki [3]: 13.3 nM
CN(C(=O)[C@H](Cc1ccccc1)NC(=O)[C@@H]1CCCN1C(=O)c1cccs1)N(C#N)Cc1ccc(Cl)cc1			13	
CC(C)c1ccc(OCC(=O)N[C@@H](Cc2ccccc2)C(=O)N(C)N(C#N)Cc2ccc(Cl)cc2)cc1			21	
COc1ccc([C@@H]2Sc3ccccc3N(CCN(C)C)C(=O)[C@@H]2OC(C)=O)cc1.Cl [DILTIAZEM HYDROCHLORIDE]				half-life at 100 µM [10]: 13.1 h
